Data: patent US6458381B1, “Lipids and their use, for example, in liposomes” (priority 1996, dated 2002)

What was measured:
Assay type in all cases: cell-based, human
HeLa cells [1] = assay: Intracellular delivery of fluorescein labelled phosphothioate oligonucleotide, fluorescent microscopy
Method: HeLa cells (plated one day before the experiment, 2×10^5 cells per well, 6-well plate) were grown on glass microscope slides in 2 ml of RPMI 1640 supplemented with 10% FCS. Before the experiment, the medium was replaced with RPMI 1640 without serum.
Formation of oligonucleotide-compound (1) complexes was done as follows. 10 μg of phosphothioate oligonucleotide was dissolved in […] of transfection buffer. 16 μg and 50 μg of compound (1) were diluted with transfection buffer to the final volume of 100 μl. The two solutions were mixed together and incubated for 10 min. Oligonucleotide solution without compound (1) was diluted with 100 μl of transfection buffer. The resultant solutions (200 μl per well) were added to the cell cultures (final concentration of oligonucleotide was about 1 μM, compound (1) 8 μM and 25 μM). The complexes were incubated with the cells for 4 hours. The medium was then substituted with a complete growth medium.
At 4 and 24 hours, cells were washed three times with PBS and fixed with 1% glutaraldehyde solution for 15 min. After fixation, cells were washed three times with PBS and mounted in glycerol mounting solution (10 mM phosphate, 150 mM NaCl, 70% glycerol, pH 7.5). The localization of fluorescein labelled phosphothioate oligonucleotide was determined by fluorescent microscopy, using a Zeiss fluorescent microscope.

HeLa cells [2] = assay: Transfection of HeLa cells with pCMVL, luciferase assay
Method: The cells were resuspended in fresh medium and placed either in 24-well plates (5×10^4 cells per well) or in 6-well plates (2-2.5×10^4 cells per well). Just before transfection, the cells were placed in fresh medium with or without 10% FCS. In general, cells were transfected at 50 to 70% confluence. […] Cell debris was removed by centrifugation (14000 rpm for 2 min). Usually, enzyme activity (see below) was determined directly after cell lysis.
Plasmid DNA (from a stock solution of a concentration of about 1 mg/ml) and cationic lipids (from a stock solution of a concentration 1 to 2 mg/ml) were diluted separately in 1.5 ml Eppendorf tubes with 10 mM Hepes, 0.9% NaCl buffer, pH 7.4, to the final volume of 100 μl. The amount of DNA in typical transfections varied from 1 to 2 μg per 100 μl. The amount of a cationic lipid varied from 0 to 20 μg per 100 μl. Two solutions were mixed together to form a DNA-lipid solution. After incubation for 10 min at room temperature the resultant DNA-lipid solution was added to the cell cultures, growing as described before, and gently mixed. Alternatively, the DNA-lipid solution was diluted with 800 μl (for 24- or 6-well plates) of the appropriate medium (+/−FCS) and mixed. The diluted solution was then overlayed onto the cells, rinsed with the appropriate medium. […] A typical incubation time in the absence of serum was 4 hours. The transfection medium was then substituted with a complete growth medium. In the presence of serum, the transfection medium was usually not replaced and the cells continued to grow in the presence of complexes until the end of experiments (one step transfection).
Luciferase assay. […] The luciferase assay was performed by adding 5 to 10 μl of cell extract.
Just before transfection, the medium was removed and cells were supplied with 1 ml fresh medium with or without serum. […] In the absence of serum, the transfection medium was removed after 4 hours, and the cells were supplied with 1 ml fresh serum supplemented medium. […]

K562 cells = assay: Transfection of K562 suspension cells with pCMVL, luciferase assay; conditions: K562, presence of serum
Method: HeLa (CCL2, epitheloid carcinoma, human), COS-7 (CRL 1651, kidney, SV-40 transformed, African green monkey), HT-29 (HTB 38, adenocarcinoma, colon, human), CV-1 (CCL 70, kidney, African green monkey), 818-4 (adenocarcinoma, pancreas, human), H4IIE (CRL 1548; hepatoma, rat), K562 (CCL 243; chronic myelogenous leukemia, human), HL-60 (CCL 240; promyelotic leukemia, human) were grown in 5% CO2 at 37° C. on plastic tissue culture flasks in RPMI 1640 or DMEM with 10% fetal calf serum and supplemented with penicillin at 100 units per ml, streptomycin at 100 μg per ml, 2 mM glutamine and 0.1 μM dexamethasone for H4IIE cells.
At 24 hours before transfection, the cells were placed in fresh complete growth medium. Just before transfection, the cells were collected, resuspended in fresh medium with or without 10% FCS at 0.25×10^6 cells per ml, and placed in 24-well plates, 2 ml per well.
The cells were normally harvested 24 hours after transfection (the time of harvesting is an important variable and should be optimized), collected by centrifugation and resuspended in 10 ml of PBS, again centrifuged, and the cell pellet was transferred into a 1.5 ml Eppendorf tube with 1 ml PBS. The cells were centrifuged in the Eppendorf centrifuge (14000 rpm for 20 sec), The resulting cells were lysed in 100 μl of lysis buffer (described above). […]

HeLa cells [3] = assay: Intracellular delivery of fluorescein labelled anionic polypeptide, fluorescent microscopy; conditions: 1 μM labelled polyanion in the presence of 25 μM compound (1)

Which fluorescence of cells (HeLa cells [1]; 1 μM fluorescein labelled oligonucleotide alone, after 4 and 24 hours, without serum) does the source give for “5′-ACT TGG ATA CGC ACG-fluorescein-3 [fluorescein labelled oligonucleotide, reference compound]” here?
The fluorescence of cells was “faint fluorescence”.

What about the “effect of serum on fluorescence and distribution” value (HeLa cells [1]; experiments performed in the presence of serum) of the same compound?
Its value is “did not change the overall fluorescence and distribution”.

For `CCCCCCCC/C=C\CCCCCCCC(=O)OCCN(CCOC(=O)CCCCCCC/C=C\CCCCCCCC)C(=O)[C@@H](N)CCCCN.Cl.Cl` [Compound 1, L-Lysine-bis(O,O′-oleoyl-β-hydroxyethyl)amide dihydrochloride], which “transfection in comparison to DOTAP transfection” value (HeLa cells [2]; absence of serum) is on record?
The value was 6 fold.

What about the “transfection in comparison to DOTAP transfection” value (HeLa cells [2]; presence of serum) of the same compound?
Its value is 12 fold.

And the “time after which the same luciferase activity (4.5×10^4 light units) was observed” value (HeLa cells [2]; with serum)?
Its value is 3 hours.

And the “transfection higher than obtained with DOTAP” value (K562 cells)?
Its value is “more than 10 fold”.

And the “fluorescence intensity at 25 μM compared with 8 μM compound (1)” value (HeLa cells [1]; 1 μM fluorescein labelled oligonucleotide)?
The value was “higher”.

And the fluorescence of cells (HeLa cells [1]; 1 μM fluorescein labelled oligonucleotide in the presence of compound (1) (8 μM and 25 μM), 4 hours)?
The fluorescence of cells was “very bright punktate fluorescence in the cytoplasm”.

What about the fluorescence of cells (HeLa cells [1]; 1 μM fluorescein labelled oligonucleotide in the presence of compound (1), after 24 hours) of the same compound?
Its fluorescence of cells is “very clear punktate fluorescence in the cytoplasm”.

What about the fluorescence of cells (HeLa cells [3]; after 45 min) of the same compound?
Its fluorescence of cells is “bright cytoplasmic punktate fluorescence”.

What about the fluorescence of cells (HeLa cells [3]; after 24 hours) of the same compound?
The fluorescence of cells was “very bright punktate fluorescence in the cytoplasm”.
